Results as given in patent US8563542B2 (Cyclacel Limited, priority 2007, dated 2013).
Where two headings read alike, the source gives them in different places.

Experiments:
PLK1 = PLK1 (Homo sapiens, UniProt P53350); experiment: PLK1 protein kinase assay (CDC25C phosphorylation, [γ-32P]-ATP); format: biochemical; conditions: read-out: PLK1 IC50
PLK2 = PLK2 (Homo sapiens, UniProt Q9NYY3); experiment: PLK2 inhibition (PLK selectivity); format: biochemical; conditions: relative selectivity
PLK3 = PLK3 (Homo sapiens, UniProt Q9H4B4); experiment: PLK3 inhibition (PLK selectivity); format: biochemical; conditions: relative selectivity
Chain of PLK3 (Q9H4B4 whole entry): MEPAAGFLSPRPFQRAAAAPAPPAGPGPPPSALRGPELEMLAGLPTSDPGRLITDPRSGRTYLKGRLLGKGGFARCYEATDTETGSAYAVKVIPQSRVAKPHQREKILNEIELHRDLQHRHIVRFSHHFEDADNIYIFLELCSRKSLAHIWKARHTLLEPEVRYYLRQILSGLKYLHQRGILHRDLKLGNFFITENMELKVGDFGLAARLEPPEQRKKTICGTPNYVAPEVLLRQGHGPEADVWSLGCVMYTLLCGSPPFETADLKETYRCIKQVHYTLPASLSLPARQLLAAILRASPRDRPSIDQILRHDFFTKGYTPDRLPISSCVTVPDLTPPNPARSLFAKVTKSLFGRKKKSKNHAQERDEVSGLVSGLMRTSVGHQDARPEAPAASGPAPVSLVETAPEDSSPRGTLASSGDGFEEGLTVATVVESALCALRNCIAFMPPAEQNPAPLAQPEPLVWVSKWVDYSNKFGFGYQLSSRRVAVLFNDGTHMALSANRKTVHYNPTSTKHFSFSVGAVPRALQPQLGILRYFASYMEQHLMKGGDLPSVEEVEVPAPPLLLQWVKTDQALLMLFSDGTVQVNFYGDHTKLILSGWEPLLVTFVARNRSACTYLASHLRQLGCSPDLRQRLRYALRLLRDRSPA

[1] = test system: A2780 and A2780/ADR cells; experiment: Cell viability assay (Alamar Blue, 72 h), parental/MDR pair, asymmetry ratio; format: cell-based, human; conditions: paired parental and MDR tumour cell lines; Example 9, FIG. 3
From the text: In vitro cell viability assays have been used to measure the effect of drug accumulation in paired parental and drug resistant tumour cell lines. The pairs used are the human ovarian carcinoma A2780 line with its MDR counterpart A2780/ADR and the human uterine sarcoma MES-SA line with its MDR counterpart MES-SA/Dx5 [Wesolowska O., et al. (2005) Anticancer Res., 25, 383-389].
Method: Cultivated human tumour cells of the ovarian cell line A2780 and its doxorubicin-resistant pair, A2780/ADR and the uterine cell line MES-SA and its doxorubicin-resistant pair, MES-SA/DX5 were seeded at 3000 cells per well in Nunc 96-well tissue culture plates, 100 μl per well in DMEM media containing 10% foetal calf serum and penicillin/streptomycin. […] The plates were then read at 544/595 nm.
The amount of Alamar Blue reagent reacted represents the metabolic activity of the cells. […] The values were calculated from the average of three individual measurements with blank correction (medium-only control).
The assay was performed on the Biomek FxP, automation platform from Beckman Coulter. The plates were read on the Paradigm plate reader supplied by Beckman Coulter. Asymmetry ratios were calculated as the IC50 value of the compound in the drug resistant cells divided by the IC50 value in the parental cells. […]

[2] = Pharmacokinetics in fasted conscious CD-1 mice (iv and oral); format: in vivo; conditions: 1 mg/kg iv, 5-10 mg/kg oral
Experimental: Preliminary investigations of the pharmacokinetics of selected compounds were carried out in fasted conscious CD-1 mice (25-30 g). Compounds were dosed as 1 mg/kg by intravenous administration or 5-10 mg/kg by oral route. Twenty one male mice per administration route (n=3 mice per time point) received dose solution by single bolus injection in the tail vein or by oral gavage. Blood samples were collected by cardiac puncture at 5, 15, 30, 60, 120, 240 and 360 min following iv administration and at 30, 60, 120, 240, 360, 480 and 1440 min following oral administration. Blood samples were collected into tubes containing the anti-coagulant lithium heparin, mixed and placed promptly on crushed ice. Plasma was derived from whole blood by centrifugation, frozen and stored at −80° C. prior to analysis. Plasma concentrations were determined by liquid chromatography-tandem mass spectrometry in electrospray positive mode (ESI LC/MS/MS) using calibration curves prepared in the appropriate matrix. The lower level of quantification (LLOQ) in all cases was ca. 5 ng/mL. Plasma concentration-time data was processed using the computer program WinNonLin version 5.2 from which areas under the plasma concentration-time curve (AUCall) were calculated by non-compartmental analysis using Model 201 (IV-bolus Input) or Model 200 (Extravascular Input).
FIG. 1 plots the area under the curve (AUC) for plasma concentration vs time for each compound tested. The dosing vehicle across these experiments remained constant (intravenous=citrate buffer pH 3, 1 mL/kg; oral=DMA/PEG400/10 […] Tartrate buffer, pH 4 (1:3:6), 5 ml/kg). FIG. 2 represents the same data in the form of oral bioavailability (% F) for each compound.

AA = target: T1, AA (Homo sapiens, UniProt O14965); experiment: AA IC50 (Table 1; no method given); format: biochemical; conditions: Table 2, AurA IC50; class symbols; read-out: AurA IC50
T1 sequence (O14965 1-403): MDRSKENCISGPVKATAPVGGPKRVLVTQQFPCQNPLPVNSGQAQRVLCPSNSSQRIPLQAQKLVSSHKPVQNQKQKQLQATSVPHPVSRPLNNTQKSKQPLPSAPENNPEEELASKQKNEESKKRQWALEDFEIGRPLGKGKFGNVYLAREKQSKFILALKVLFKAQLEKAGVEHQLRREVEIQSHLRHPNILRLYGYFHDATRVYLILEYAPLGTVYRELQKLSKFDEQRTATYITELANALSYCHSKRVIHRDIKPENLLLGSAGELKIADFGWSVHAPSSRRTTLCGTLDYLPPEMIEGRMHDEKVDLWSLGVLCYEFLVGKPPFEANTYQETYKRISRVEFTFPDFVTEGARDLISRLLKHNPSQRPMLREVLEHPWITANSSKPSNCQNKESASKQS

[3] = Table 2, PLK1 IC50, class symbols

Chain of PLK2 (Q9NYY3 whole entry): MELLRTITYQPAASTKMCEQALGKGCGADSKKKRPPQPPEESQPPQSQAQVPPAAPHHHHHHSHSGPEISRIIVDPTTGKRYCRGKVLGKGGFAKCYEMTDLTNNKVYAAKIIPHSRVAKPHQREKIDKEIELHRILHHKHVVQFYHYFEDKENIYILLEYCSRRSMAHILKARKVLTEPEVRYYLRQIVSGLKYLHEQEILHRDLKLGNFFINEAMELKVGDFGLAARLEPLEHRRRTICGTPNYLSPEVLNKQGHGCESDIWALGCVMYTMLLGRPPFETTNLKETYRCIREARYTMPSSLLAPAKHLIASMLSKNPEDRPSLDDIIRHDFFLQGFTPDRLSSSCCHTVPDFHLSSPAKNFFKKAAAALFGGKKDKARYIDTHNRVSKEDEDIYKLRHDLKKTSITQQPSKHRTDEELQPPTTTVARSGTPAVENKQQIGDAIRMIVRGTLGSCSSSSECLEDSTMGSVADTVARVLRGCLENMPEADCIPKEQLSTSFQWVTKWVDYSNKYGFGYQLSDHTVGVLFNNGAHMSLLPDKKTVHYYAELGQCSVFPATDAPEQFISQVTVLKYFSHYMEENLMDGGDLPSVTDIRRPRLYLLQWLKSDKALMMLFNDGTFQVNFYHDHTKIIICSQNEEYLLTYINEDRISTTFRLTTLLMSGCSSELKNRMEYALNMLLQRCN
Chain of PLK1 (P53350 whole entry): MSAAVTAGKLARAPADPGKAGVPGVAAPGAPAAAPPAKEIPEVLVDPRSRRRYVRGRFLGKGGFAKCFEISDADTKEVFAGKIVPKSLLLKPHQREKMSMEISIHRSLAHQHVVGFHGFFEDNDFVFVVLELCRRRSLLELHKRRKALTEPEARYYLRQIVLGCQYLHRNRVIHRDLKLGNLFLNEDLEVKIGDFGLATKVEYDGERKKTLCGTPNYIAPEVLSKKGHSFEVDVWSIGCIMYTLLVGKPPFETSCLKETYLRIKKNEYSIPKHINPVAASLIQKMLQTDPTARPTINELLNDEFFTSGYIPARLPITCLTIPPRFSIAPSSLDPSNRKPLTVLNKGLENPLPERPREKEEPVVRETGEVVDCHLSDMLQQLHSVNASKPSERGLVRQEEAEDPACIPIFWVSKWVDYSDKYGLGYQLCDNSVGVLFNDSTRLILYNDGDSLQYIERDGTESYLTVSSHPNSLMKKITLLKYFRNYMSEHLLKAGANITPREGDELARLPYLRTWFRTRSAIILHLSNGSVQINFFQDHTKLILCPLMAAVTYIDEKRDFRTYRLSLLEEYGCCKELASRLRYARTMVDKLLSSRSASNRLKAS

SMILES	IC50 (PLK1; [3]) [µM]	IC50 (AA) [µM]	also measured
COc1cc(C(=O)NC2CN3CCC2CC3)ccc1Nc1ncc2c(n1)N(C1CCCC1)CC1(CCC1)C(=O)N2C (racemic) [Compound 218, (±)-4-(9′-cyclopentyl-5′-methyl-6′-oxo-5′,6′,8′,9′-tetrahydrospiro[cyclobutane-1,7′-pyrimido[4,5-b][1,4]diazepine]-2′-ylamino)-3-methoxy-N-(quinuclidin-3-yl)benzamide]	< 0.1		IC50 (PLK1; Table 3): < 0.1 µM; IC50 (PLK1; Table 4): < 0.1 µM; Selectivity for PLK1 versus PLK2 compared to compound [I-4] of WO 07/095188 (PLK2): 7 fold; Selectivity for PLK1 versus PLK2 compared to compound [I-64] of WO 07/095188 (PLK2): twice; Selectivity for PLK1 versus PLK2 compared to compound [I-76] of WO 07/095188 (PLK2): ~6 fold; Selectivity for PLK1 versus PLK3 compared to compound [I-4] of WO 07/095188 (PLK3): 5 fold; Selectivity for PLK1 versus PLK3 compared to compound [I-64] of WO 07/095188 (PLK3): 5 fold; Selectivity for PLK1 versus PLK3 compared to compound [I-76] of WO 07/095188 (PLK3): ~12 fold
COc1cc(C(=O)N[C@H]2CC[C@H](N3CCN(CC4CC4)CC3)CC2)ccc1Nc1ncc2c(n1)N(C1CCCC1)CC(C)(C)C(=O)N2C [Compound 372, 4-(9-cyclopentyl-5,7,7-trimethyl-6-oxo-6,7,8,9-tetrahydro-5H-pyrimido[4,5-b][1,4]diazepin-2-ylamino)-N-((trans)-4-(4-(cyclopropylmethyl)piperazin-1-yl)cyclohexyl)-3-methoxybenzamide]			IC50 (PLK1; Table 3): < 0.1 µM; Cellular efflux (MDR/parental cell asymmetry in cell viability assays) [1]: low cellular efflux
COc1cc(C(=O)N[C@H]2CC[C@H](N3CCN(CC4CC4)CC3)CC2)ccc1Nc1ncc2c(n1)N(C1CCCC1)CC1(CC1)C(=O)N2C [H]			Oral bioavailability (% F) compared to compounds A-G [2]: markedly superior; Systemic exposure (plasma AUC) compared to compounds A-G [2]: markedly superior
COc1cc(C(=O)N[C@H]2CC[C@H](N3CCN(CC4CC4)CC3)CC2)ccc1Nc1ncc2c(n1)N(C1CCCC1)CCC(=O)N2C [I]			Oral bioavailability (% F) compared to compounds A-G [2]: markedly superior; Systemic exposure (plasma AUC) compared to compounds A-G [2]: markedly superior
Cc1ccc(N2CCC(=O)N(C)c3cnc(Nc4ccc(NC(=O)C5CC5)c(C)c4)nc32)cc1 [compound 291, Cyclopropanecarboxylic acid [2-methyl-4-(5-methyl-6-oxo-9-p-tolyl-6,7,8,9-tetrahydro-5H-pyrimido[4,5-b][1,4]diazepin-2-ylamino)-phenyl]-amide]	< 10	< 0.1	
CN1C(=O)CCN(C2CCCC2)c2nc(Nc3ccc4sc(C(=O)O)cc4c3)ncc21 [compound 292, 5-(9-Cyclopentyl-5-methyl-6-oxo-6,7,8,9-tetrahydro-5H-pyrimido[4,5-b][1,4]diazepin-2-ylamino)-benzo[b]thiophene-2-carboxylic acid]	< 1	< 0.1	
CN1C(=O)CCN(C2CCCC2)c2nc(Nc3ccc(C(=O)N4CCOCC4)cc3)ncc21 [compound 293, 9-Cyclopentyl-5-methyl-2-[4-(morpholine-4-carbonyl)-phenylamino]-5,7,8,9-tetrahydro-pyrimido[4,5-b][1,4]diazepin-6-one]	< 10	< 0.1	
CN1C(=O)CCN(C2CCCC2)c2nc(Nc3ccc4c(c3)OCC(=O)N4)ncc21 [compound 294, 9-Cyclopentyl-5-methyl-2-(3-oxo-3,4-dihydro-2H-benzo[1,4]oxazin-7-ylamino)-5,7,8,9-tetrahydro-pyrimido[4,5-b][1,4]diazepin-6-one]	< 1	< 1	

Further lines, with some results ahead:

IC50 (PLK1; [3]) [µM]	IC50 (AA) [µM]	SMILES	also measured
< 10	< 0.1	CN1C(=O)CCN(C2CCCC2)c2nc(Nc3ccc4c(c3)NC(=O)CO4)ncc21 [compound 295, 9-Cyclopentyl-5-methyl-2-(3-oxo-3,4-dihydro-2H-benzo[1,4]oxazin-6-ylamino)-5,7,8,9-tetrahydro-pyrimido[4,5-13][1,4]diazepin-6-one]	
< 1	< 0.1	CN1C(=O)CCN(C2CCCC2)c2nc(Nc3ccc4sc(C(=O)O)cc4c3)ncc21 [compound 296]	
< 10	< 0.1	CN1C(=O)CCN(C2CCCC2)c2nc(Nc3ccc(C(=O)N4CCOCC4)cc3)ncc21 [compound 297, 9-Cyclopentyl-5-methyl-2-[4-(morpholine-4-carbonyl)-phenylamino]-5,7,8,9-tetrahydro-pyrimido[4,5-b][1,4]diazepin-6-one]	
< 1	< 1	CN1C(=O)CCN(C2CCCC2)c2nc(Nc3ccc4c(c3)OCC(=O)N4)ncc21 [compound 298, 9-Cyclopentyl-5-methyl-2-(3-oxo-3,4-dihydro-2H-benzo[1,4]oxazin-7-ylamino)-5,7,8,9-tetrahydro-pyrimido[4,5-b][1,4]diazepin-6-one]	
< 10	< 0.1	CN1C(=O)CCN(C2CCCC2)c2nc(Nc3ccc4c(c3)NC(=O)CO4)ncc21 [compound 299, 9-Cyclopentyl-5-methyl-2-(3-oxo-3,4-dihydro-2H-benzo[1,4]oxazin-6-ylarnino)-5,7,8,9-tetrahydro-pyrimido[4,5-b][1,4]diazepin-6-one]	
< 10	< 0.1	CN1C(=O)CCN(C2CCCC2)c2nc(Nc3ccc(S(=O)(=O)N(C)C)cc3)ncc21 [compound 300, 4-(9-Cyclopentyl-5-methyl-6-oxo-6,7,8,9-tetrahydro-5H-pyrimido[4,5-b][1,4]diazepin-2-ylamino)-N,N-dimethyl-benzenesulfonamide]	
< 10	< 1	CC(=O)Nc1ccc(Nc2ncc3c(n2)N(C2CCCC2)CCC(=O)N3C)cc1Cl [compound 324, N-[2-Chloro-4-(9-cyclopentyl-5-methyl-6-oxo-6,7,8,9-tetrahydro-5H-pyrimido[4,5-b][1,4]diazepin-2-ylamino)-phenyl]-acetamide]	
< 1	< 10	CN1CCC(NC(=O)c2ccc(Nc3ncc4c(n3)N(C3CCCC3)CC3(CC3)C(=O)N4C)cc2)CC1 [compound 349, 4-(9-Cyclopentyl-5-methyl-6-oxo-6,7,8,9-tetrahydro-5H-spiro[pyrimido[4,5-b][1,4]diazepin-3,1'-cyclopropane]-2-ylamino)-N-(1-methyl-piperidin-4-yl)-benzamide]	
